Experimental data: paper PMC6156125, “Chemistry and Hypoglycemic Activity of GPR119 Agonist ZB-16” (Frontiers in Endocrinology, 2018)

Biological target: T1, CYP2D6 (Homo sapiens, UniProt P10635)
T1 construct: purchased Invitrogen Corporation, Carlsbad, CA, USA
Assay: CYP inhibition, Vivid CYP450 Screening Kit
Type: in vitro ADME
Conditions: 0.0046 to 10 μM tested
Method: Briefly, the reaction was initiated by adding NADP^+ and a substrate converted to fluorescent derivates by specific CYP isozyme. The reaction was terminated by adding 1M Tris. The fluorescence of the reaction product, which was proportional to CYP isozyme activity, was measured. […] The minimal signal was defined as the signal obtained without enzyme incubation. The inhibitory action of test compounds on the CYP isozymes was expressed in terms of median inhibitory concentration (IC50).

T1 sequence (P10635 whole entry): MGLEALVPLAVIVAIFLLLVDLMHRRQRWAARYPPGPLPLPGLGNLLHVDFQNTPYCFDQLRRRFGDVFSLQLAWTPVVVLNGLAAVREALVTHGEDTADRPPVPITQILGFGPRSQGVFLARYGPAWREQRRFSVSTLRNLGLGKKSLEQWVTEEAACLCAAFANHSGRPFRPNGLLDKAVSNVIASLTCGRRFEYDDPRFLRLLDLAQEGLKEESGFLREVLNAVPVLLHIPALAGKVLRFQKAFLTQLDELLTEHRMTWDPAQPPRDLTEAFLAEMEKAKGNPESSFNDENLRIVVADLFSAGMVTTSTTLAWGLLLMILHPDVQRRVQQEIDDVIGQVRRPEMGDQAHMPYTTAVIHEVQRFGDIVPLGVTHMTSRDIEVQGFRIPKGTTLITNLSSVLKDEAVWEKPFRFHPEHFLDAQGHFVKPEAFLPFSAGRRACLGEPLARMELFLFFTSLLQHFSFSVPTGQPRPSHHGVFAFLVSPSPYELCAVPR

O=S1(=O)COc2cc(-c3ccc(OCC4CCN(c5ncc(Cl)cn5)CC4)c(F)c3)ccc21 [ZB-16]
IC50: > 10 µM
